Measured values reported in US20250221988A1 (Cullgen (Shanghai), Inc., priority 2022, published 2025).
pIC50: −log10 of the molar value. Read-outs that look alike come from different tables or passages of the source.

Assays:
MOLM-13 cells = assay: Cell viability assay (CellTiter-Glo) in MOLM-13 cells; format: cell-based; conditions: for pIC50: 72 h, compound alone, read-out: MOLM-13 IC50
Experimental: (§1) Cell Culture: RS4;11, MV4;11, MOLM-13 and other cells were cultured at 37° C. with 5% CO2 in RPMI 1640 or DMEM Medium supplemented with 10% fetal bovine serum. Cells were authenticated using the short tandem repeat (STR) assays. Mycoplasma test results were negative.
Cell viability assays: Cells were seeded at a density of 5000 cells per well in 96-well assay plates and treated with test compounds following a 8-point or 12-point 3-fold serial dilution. Three days later, cell viability was determined using the CellTiter-Glo assay kit according to the manufacturer's instructions. The dose-response curves were determined and IC50 values were calculated using the GraphPad Prism software following a nonlinear regression (least squares fit) method. […]

MV4;11 cells = assay: Cell viability assay (CellTiter-Glo) in MV4;11 cells; format: cell-based; conditions: read-out: MV4; for pIC50: compound alone, 11 IC50
Experimental: as §1
Cell viability assays: Cells were seeded at a density of 5000 cells per well in 96-well assay plates and treated with test compounds following a 8-point or 12-point 3-fold serial dilution. Three days later, cell viability was determined using the CellTiter-Glo assay kit according to the manufacturer's instructions. The dose-response curves were determined and IC50 values were calculated using the GraphPad Prism software following a nonlinear regression (least squares fit) method.
The IC50 values (nM) of each compound were determined in MV4;11 and MOLM-13 cells with or without gilteritinib (10 nM for MV4;11; and 20 nM for MOML-13) as described in the Materials and Methods subsection and calculated using the GraphPad Prism 5.0 software.

[1] = Homo sapiens, MOLM-13 cells, three days
[2] = MOLM-13 cells, with gilteritinib, three days, read-out: MOLM-13 IC50 (nM) + 10 nM Gil
[3] = Homo sapiens, MV4-11, 72 h, MV4;11 cells, three days
[4] = MV4;11 cells, with 10 nM gilteritinib, three days, 11 IC50 (nM) + 10 nM Gil

SMILES: O=C1CCC(N2C(=O)c3ccc(NC[C@H]4C[C@H](n5cc(-c6ccc7c(n6)CCC7O)c(C6CC6)n5)C4)cc3C2=O)C(=O)N1 (stereo partly drawn) [GS-705, 5-(((Trans-3-(3-cyclopropyl-4-(5-hydroxy-6,7-dihydro-5H-cyclopenta[b]pyridin-2-yl)-1H-pyrazol-1-yl)cyclobutyl)methyl)amino)-2-(2,6-dioxopiperidin-3-yl)isoindoline-1,3-dione]
- pIC50 (MOLM-13 cells; [1]): 6.00 to 7.00
- IC50 (MOLM-13 cells; [2]): 100 to 1000 nM
- pIC50 (MV4;11 cells; [3]): < 6.00
- IC50 (MV4;11 cells; [4]): 100 to 1000 nM

SMILES: Cn1nccc1Nc1cn([C@H]2C[C@H](CNc3ccc4c(c3)C(=O)N(C3CCC(=O)NC3=O)C4=O)C2)nc1C1CC1 (stereo partly drawn) [GS-784, 5-(((Trans-3-(3-cyclopropyl-4-((1-methyl-1H-pyrazol-5-yl)amino)-1H-pyrazol-1-yl)cyclobutyl)methyl)amino)-2-(2,6-dioxopiperidin-3-yl)isoindoline-1,3-dione]
- pIC50 (MOLM-13 cells; [1]): 6.00 to 7.00
- IC50 (MOLM-13 cells; [2]): 100 to 1000 nM
- pIC50 (MV4;11 cells; [3]): 6.00 to 7.00
- IC50 (MV4;11 cells; [4]): 10 to 100 nM

SMILES: O=C1CCC(N2Cc3ccc(NC[C@H]4C[C@H](n5cc(-c6cnc7ccccc7n6)c(C6CC6)n5)C4)cc3C2=O)C(=O)N1 (stereo partly drawn) [GS-662, 3-(6-(((Trans-3-(3-cyclopropyl-4-(quinoxalin-2-yl)-1H-pyrazol-1-yl)cyclobutyl)methyl)amino)-1-oxoisoindolin-2-yl)piperidine-2,6-dione]
- pIC50 (MOLM-13 cells; [1]): < 6.00
- pIC50 (MV4;11 cells; [3]): < 6.00

SMILES: Cn1cc2c(-c3cn([C@H]4C[C@H](CNc5ccc6c(c5)C(=O)N(C5CCC(=O)NC5=O)C6=O)C4)nc3C3CC3)ncc(F)c2n1 (stereo partly drawn) [GS-790, 5-(((Trans-3-(3-cyclopropyl-4-(7-fluoro-2-methyl-2H-pyrazolo[4,3-c]pyridin-4-yl)-1H-pyrazol-1-yl)cyclobutyl)methyl)amino)-2-(2,6-dioxopiperidin-3-yl)isoindoline-1,3-dione]
- pIC50 (MOLM-13 cells; [1]): 7.00 to 8.00
- IC50 (MOLM-13 cells; [2]): < 10 nM
- pIC50 (MV4;11 cells; [3]): > 8.00
- IC50 (MV4;11 cells; [4]): < 10 nM

SMILES: O=C1CCC(N2C(=O)c3ccc(NC[C@H]4C[C@H](n5nc(C6CC6)c6ccc(N7CCNCC7)cc65)C4)cc3C2=O)C(=O)N1 (stereo partly drawn) [GS-742, 5-(((Trans-3-(3-cyclopropyl-6-(piperazin-1-yl)-1H-indazol-1-yl)cyclobutyl)methyl)amino)-2-(2,6-dioxopiperidin-3-yl)isoindoline-1,3-dione]
- pIC50 (MOLM-13 cells; [1]): < 6.00
- IC50 (MOLM-13 cells; [2]): 100 to 1000 nM
- pIC50 (MV4;11 cells; [3]): < 6.00
- IC50 (MV4;11 cells; [4]): 100 to 1000 nM

SMILES: Cc1cccc(-c2cn(C3CC4(CC(CCNc5ccc6c(c5)C(=O)N(C5CCC(=O)NC5=O)C6=O)C4)C3)nc2C2CC2)n1 (stereo not drawn) [GS-749, 5-((2-(6-(3-Cyclopropyl-4-(6-methylpyridin-2-yl)-1H-pyrazol-1-yl)spiro[3.3]heptan-2-yl)ethyl)amino)-2-(2,6-dioxopiperidin-3-yl)isoindoline-1,3-dione]
- pIC50 (MOLM-13 cells; [1]): 7.00 to 8.00
- IC50 (MOLM-13 cells; [2]): < 10 nM
- sensitization of AML cells to GSPT1 degraders by FLT3 inhibition (MOLM-13 cells; MOLM-13 cells, with or without 20 nM gilteritinib, 3 days): FLT3 inhibition sensitizes AML cells
- pIC50 (MV4;11 cells; [3]): 7.00 to 8.00
- IC50 (MV4;11 cells; [4]): < 10 nM

SMILES: O=C1CCC(N2C(=O)c3ccc(NC[C@H]4C[C@H](n5cc(-n6ncc7ccccc76)c(C6CC6)n5)C4)cc3C2=O)C(=O)N1 (stereo partly drawn) [GS-736, 5-(((Trans-3-(3-cyclopropyl-4-(1H-indazol-1-yl)-1H-pyrazol-1-yl)cyclobutyl)methyl)amino)-2-(2,6-dioxopiperidin-3-yl)isoindoline-1,3-dione]
- IC50 (MOLM-13 cells; Homo sapiens, MOLM-13, 72 h, read-out: MOLM-13 IC50 (nM)): 10 to 100 nM
- IC50 (MOLM-13 cells; read-out: MOLM-13 IC50 (nM) + 10 nM Gil, MOLM-13 cells, with gilteritinib, three days): < 10 nM
- IC50 (MV4;11 cells; Homo sapiens, MV4-11, 72 h, 11 IC50 (nM)): < 10 nM
- IC50 (MV4;11 cells; 11 IC50 (nM) + 10 nM Gil, MV4;11 cells, with 10 nM gilteritinib, three days): < 10 nM

SMILES: N[C@H]1C[C@H](n2ncc3cnc(-c4cn([C@H]5C[C@H](CNc6ccc7c(c6)C(=O)N(C6CCC(=O)NC6=O)C7=O)C5)nc4C4CC4)cc32)C1 (stereo partly drawn) [GS-776, 5-(((Trans-3-(4-(1-(trans-3-aminocyclobutyl)-1H-pyrazolo[4,3-c]pyridin-6-yl)-3-cyclopropyl-1H-pyrazol-1-yl)cyclobutyl)methyl)amino)-2-(2,6-dioxopiperidin-3-yl)isoindoline-1,3-dione]
- pIC50 (MOLM-13 cells; [1]): 7.00 to 8.00
- IC50 (MOLM-13 cells; [2]): < 10 nM
- pIC50 (MV4;11 cells; [3]): 7.00 to 8.00
- IC50 (MV4;11 cells; [4]): < 10 nM

SMILES: Cn1ccc2nc(-c3cn([C@H]4C[C@H](CNc5ccc6c(c5)C(=O)N(C5CCC(=O)NC5=O)C6=O)C4)nc3C3CC3)ccc21 (stereo partly drawn) [GS-695, 5-(((Trans-3-(3-cyclopropyl-4-(1-methyl-1H-pyrrolo[3,2-b]pyridin-5-yl)-1H-pyrazol-1-yl)cyclobutyl)methyl)amino)-2-(2,6-dioxopiperidin-3-yl)isoindoline-1,3-dione]
- pIC50 (MOLM-13 cells; [1]): 7.00 to 8.00
- IC50 (MOLM-13 cells; [2]): < 10 nM
- pIC50 (MV4;11 cells; [3]): 7.00 to 8.00
- IC50 (MV4;11 cells; [4]): < 10 nM

SMILES: O=C1CCC(N2C(=O)c3ccc(NC[C@H]4C[C@H](n5cc(-c6ncccc6OC6CC6)c(C6CC6)n5)C4)cc3C2=O)C(=O)N1 (stereo partly drawn) [GS-641, 5-(((Trans-3-(4-(3-cyclopropoxypyridin-2-yl)-3-cyclopropyl-1H-pyrazol-1-yl)cyclobutyl)methyl)amino)-2-(2,6-dioxopiperidin-3-yl)isoindoline-1,3-dione]
- pIC50 (MOLM-13 cells; [1]): > 8.00
- IC50 (MOLM-13 cells; [2]): < 10 nM
- pIC50 (MV4;11 cells; [3]): > 8.00
- IC50 (MV4;11 cells; [4]): < 10 nM

SMILES: O=C1CCC(N2C(=O)c3ccc(NC[C@H]4C[C@H](n5cc(NC6CCC(O)CC6)c(C6CC6)n5)C4)cc3C2=O)C(=O)N1 (stereo partly drawn) [GS-709, 5-(((Trans-3-(3-cyclopropyl-4-((4-hydroxycyclohexyl)amino)-1H-pyrazol-1-yl)cyclobutyl)methyl)amino)-2-(2,6-dioxopiperidin-3-yl)isoindoline-1,3-dione]
- pIC50 (MOLM-13 cells; [1]): < 6.00
- pIC50 (MV4;11 cells; [3]): < 6.00

SMILES: O=C1CCC(N2C(=O)c3ccc(NC[C@H]4C[C@H](n5cc(-c6ccccc6N6CCNCC6)c(C6CC6)n5)C4)cc3C2=O)C(=O)N1 (stereo partly drawn) [GS-652, 5-(((Trans-3-(3-cyclopropyl-4-(2-(piperazin-1-yl)phenyl)-1H-pyrazol-1-yl)cyclobutyl)methyl)amino)-2-(2,6-dioxopiperidin-3-yl)isoindoline-1,3-dione]
- pIC50 (MOLM-13 cells; [1]): < 6.00
- IC50 (MOLM-13 cells; [2]): 100 to 1000 nM
- pIC50 (MV4;11 cells; [3]): < 6.00
- IC50 (MV4;11 cells; [4]): 10 to 100 nM

SMILES: O=C1CCC(N2C(=O)c3ccc(NC[C@H]4C[C@H](n5cc(-c6cc7nn([C@H]8CC[C@H](O)CC8)cc7cn6)c(C6CC6)n5)C4)cc3C2=O)C(=O)N1 (stereo partly drawn) [GS-789, 5-(((Trans-3-(3-cyclopropyl-4-(2-(trans-4-hydroxycyclohexyl)-2H-pyrazolo[4,3-c]pyridin-6-yl)-1H-pyrazol-1-yl)cyclobutyl)methyl)amino)-2-(2,6-dioxopiperidin-3-yl)isoindoline-1,3-dione]
- pIC50 (MOLM-13 cells; [1]): > 8.00
- IC50 (MOLM-13 cells; [2]): < 10 nM
- pIC50 (MV4;11 cells; [3]): > 8.00
- IC50 (MV4;11 cells; [4]): < 10 nM

SMILES: O=C1CCC(N2C(=O)c3ccc(NCCC4CC5(C4)CC(n4cc(-c6cnc7ccccc7n6)c(C6CC6)n4)C5)cc3C2=O)C(=O)N1 (stereo not drawn) [GS-724, 5-((2-(6-(3-Cyclopropyl-4-(quinoxalin-2-yl)-1H-pyrazol-1-yl)spiro[3.3]heptan-2-yl)ethyl)amino)-2-(2,6-dioxopiperidin-3-yl)isoindoline-1,3-dione]
- pIC50 (MOLM-13 cells; [1]): 7.00 to 8.00
- IC50 (MOLM-13 cells; [2]): < 10 nM
- pIC50 (MV4;11 cells; [3]): > 8.00
- IC50 (MV4;11 cells; [4]): < 10 nM

SMILES: Cc1cc(F)cnc1-c1cn([C@H]2C[C@H](CNc3ccc4c(c3)C(=O)N(C3CCC(=O)NC3=O)C4=O)C2)nc1C1CC1 (stereo partly drawn) [GS-717, 5-(((Trans-3-(3-cyclopropyl-4-(5-fluoro-3-methylpyridin-2-yl)-1H-pyrazol-1-yl)cyclobutyl)methyl)amino)-2-(2,6-dioxopiperidin-3-yl)isoindoline-1,3-dione]
- pIC50 (MOLM-13 cells; [1]): 7.00 to 8.00
- IC50 (MOLM-13 cells; [2]): < 10 nM
- pIC50 (MV4;11 cells; [3]): > 8.00
- IC50 (MV4;11 cells; [4]): < 10 nM
